# In patent publication EP1363899B1, “QUINAZOLONE DERIVATIVES AS ALPHA 1A/B ADRENERGIC RECEPTOR ANTAGONISTS” (F.HOFFMANN-LA ROCHE AG, priority 2001, dated 2002):
# What was measured:
# alpha-1D adrenoceptor = molecular target: T1, alpha-1D adrenoceptor (Homo sapiens, UniProt P25100); test: [3H]prazosin binding (alpha1-adrenoceptor) assay, alpha-1D; conditions: membranes of transfected CHO-KI cells, read-out: affinity towards the alpha-1D adrenoceptor (pKi) (converted)
# T1 construct: expressed in transfected cells; host or cells: CHO-K1
# T1 sequence (P25100 1-572): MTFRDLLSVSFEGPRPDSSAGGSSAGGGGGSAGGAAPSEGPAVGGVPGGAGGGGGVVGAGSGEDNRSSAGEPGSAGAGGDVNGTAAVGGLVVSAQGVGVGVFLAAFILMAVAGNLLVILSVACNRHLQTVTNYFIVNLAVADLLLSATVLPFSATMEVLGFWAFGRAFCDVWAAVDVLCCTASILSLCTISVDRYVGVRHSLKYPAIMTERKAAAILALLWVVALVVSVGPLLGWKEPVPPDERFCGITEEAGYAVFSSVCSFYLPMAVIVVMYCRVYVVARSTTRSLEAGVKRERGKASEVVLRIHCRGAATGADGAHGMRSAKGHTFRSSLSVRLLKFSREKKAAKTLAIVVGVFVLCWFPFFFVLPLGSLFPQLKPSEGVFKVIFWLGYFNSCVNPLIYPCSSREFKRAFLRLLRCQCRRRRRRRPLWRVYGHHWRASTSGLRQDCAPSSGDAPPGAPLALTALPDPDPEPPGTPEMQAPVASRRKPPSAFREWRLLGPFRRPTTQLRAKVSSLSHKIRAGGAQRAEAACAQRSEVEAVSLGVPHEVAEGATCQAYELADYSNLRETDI
# Method: (§1) Alpha1A, alpha1B, and alpha1D adrenoceptor transfected CHO-KI cells, prepared using the methods described by Chang et al., FEBS Lett. 1998, 422:279-283, were grown to confluence in T-162 tissue culture flasks in Ham's F-12 culture medium supplemented with 10% fetal bovine serum, geneticin (150 µg/mL) and streptomycin/penicillin (30 µg/mL/30 µg/mL) at 37 °C in 7% CO2. Cells were harvested by incubating with phosphate-buffered saline (PBS) containing 30 µM EDTA for 5-10 min at 37 °C. Cells were pelleted by centrifuging at 500 x g for 5 min, and the pelleted cells were homogenized (Polytron homogenizer) in 10 vols (w/v) of 50 mM Tris, 1 mM EDTA, (homogenisation buffer, pH 7.4 at 4 °C). The homogenate was centrifuged at 45,000 x g for 20 min. The pellet was resuspended in the homogenizing buffer and rehomogenized. The resulting homogenate was centrifuged at 45,000 x g for 20 min. The pellet was resuspended in 50 mM Tris buffer (pH 7.4 at 4 °C), aliquoted, frozen, and stored at -80 °C for further use.
# (§2) The membranes were thawed at room temperature and diluted in assay buffer (50 mM Tris buffer at […]) at 37 °C and homogenized using the Polytron tissue disrupter. The membranes were incubated with the radioligand ([^3H]prazosin, NEN, 0.1 - 0.5 nM) and test compound at 37 °C for 30 min. The membranes were then filtered over polyethyleneimine-treated GF/B unifilter plates using a Packard Filtermate Harvester and washed with ice-cold 50 mM Tris-HCl, 1 mM EDTA buffer (3 x 3 sec. washes). Scintillation cocktail was added to the filter plates and bound radioligand determined by liquid scintillation spectrophotometry.
# (§3) For each experiment, total binding (in the absence of any test or reference compounds) and non-specific binding (10 µM phentolamine) were determined. For each sample tested, the concentration producing 50% inhibition of binding (IC50) and Hill Slope (nH) was determined using iterative non-linear curve fitting techniques with Kaleidagraph (Synergy Software) or other appropriate software. If the radioligand KD was known, the inhibition dissociation constant (K1) of each ligand was determined according to the method of Cheng and Prusoff (Cheng, Y-C. and Prusoff, W.H., Biochem. Pharmacol., 1973, 22, 3099-3108).
# alpha-1B adrenoceptor = molecular target: T2, alpha-1B adrenoceptor (Homo sapiens, UniProt P35368); test: [3H]prazosin binding (alpha1-adrenoceptor) assay, alpha-1B; conditions: membranes of transfected CHO-KI cells, read-out: affinity towards the alpha-1B adrenoceptor (pKi) (converted)
# T2 construct: expressed in transfected cells; host or cells: CHO-K1
# T2 sequence (P35368 1-520): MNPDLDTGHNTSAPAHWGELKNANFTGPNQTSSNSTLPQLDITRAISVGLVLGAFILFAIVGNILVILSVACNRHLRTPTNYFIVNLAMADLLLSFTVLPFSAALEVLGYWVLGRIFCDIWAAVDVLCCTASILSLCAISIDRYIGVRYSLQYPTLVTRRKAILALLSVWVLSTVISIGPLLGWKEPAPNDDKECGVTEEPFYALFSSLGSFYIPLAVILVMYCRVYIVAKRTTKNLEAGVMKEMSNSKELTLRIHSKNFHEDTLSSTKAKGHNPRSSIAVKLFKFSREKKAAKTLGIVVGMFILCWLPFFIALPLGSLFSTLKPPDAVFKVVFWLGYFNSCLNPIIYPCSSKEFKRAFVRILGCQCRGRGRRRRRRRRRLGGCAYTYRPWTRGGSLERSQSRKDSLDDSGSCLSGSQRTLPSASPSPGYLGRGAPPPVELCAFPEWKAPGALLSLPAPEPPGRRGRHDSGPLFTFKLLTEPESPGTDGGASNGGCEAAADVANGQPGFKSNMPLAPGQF
# Method: as §1, §2, §3
# alpha-1A adrenoceptor = molecular target: T3, alpha-1A adrenoceptor (Homo sapiens, UniProt P35348); test: [3H]prazosin binding (alpha1-adrenoceptor) assay, alpha-1A; conditions: membranes of transfected CHO-KI cells, read-out: affinity towards the alpha-1A adrenoceptor (pKi) (converted)
# T3 construct: expressed in transfected cells; host or cells: CHO-K1
# T3 sequence (P35348 1-466): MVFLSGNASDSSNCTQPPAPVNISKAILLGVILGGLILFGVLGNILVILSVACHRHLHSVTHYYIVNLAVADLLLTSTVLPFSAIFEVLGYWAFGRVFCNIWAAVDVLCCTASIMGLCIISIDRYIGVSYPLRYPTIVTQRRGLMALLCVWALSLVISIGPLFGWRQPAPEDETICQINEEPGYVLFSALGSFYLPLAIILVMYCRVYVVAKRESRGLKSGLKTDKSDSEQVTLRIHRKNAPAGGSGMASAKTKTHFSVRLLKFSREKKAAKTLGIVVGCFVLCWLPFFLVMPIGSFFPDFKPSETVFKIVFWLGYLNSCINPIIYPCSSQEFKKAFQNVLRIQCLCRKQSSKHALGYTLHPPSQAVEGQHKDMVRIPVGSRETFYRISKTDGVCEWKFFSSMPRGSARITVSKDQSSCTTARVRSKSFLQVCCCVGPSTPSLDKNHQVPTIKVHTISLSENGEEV
# Method: as §1, §2, §3
Ki (alpha-1D adrenoceptor) [nM],Ki (alpha-1B adrenoceptor) [nM],Ki (alpha-1A adrenoceptor) [nM],Compound
468,41.7,5.5,"COc1cc2[nH]c(N3CCc4ccncc4C3)nc(=O)c2cc1OC [Compound 147, 2-(3,4-dihydro-1H-[2,7]naphthyridin-2-yl)-6,7-dimethoxy-1H-quinazolin-4-one]"
575,8.71,4.47,"COc1cc2nc(N3CCc4c(ncnc4N4CCN(C)CC4)C3)[nH]c(=O)c2cc1OC [Compound 203, 6,7-dimethoxy-2-[4-(4-methyl-piperazin-1-yl)-5,8-dihydro-6H-pyrido[3,4-d]pyrimidin-7-yl]-3H-quinazolin-4-one]"
407,5.01,6.17,COCCN(C)c1ncnc2c1CCN(c1nc3cc(OC)c(OC)cc3c(=O)[nH]1)C2 [Compound 205]
182,13.2,3.8,"COc1cc2nc(N3CCc4c(ncnc4Nc4cccc(C)n4)C3)[nH]c(=O)c2cc1OC [Compound 208, 6,7-dimethoxy-2-[4-(6-methyl-pyridin-2-ylamino)-5,8-dihydro-6H-pyrido[3,4-d]pyrimidin-7-yl]-3H-quinazolin-4-one]"
6.17,0.832,0.912,"COc1cc2[nH]c(N3CCn4c(cnc4-c4ccccc4)C3)nc(=O)c2cc1OC [Compound 302, 6,7-dimethoxy-2-(3-phenyl-5,6-dihydro-8H-imidazo[1,5-a]pyrazin-7-yl)-1H-quinazolin-4-one]"
19.5,3.09,1.12,"CCCCc1ncc2n1CCN(c1nc(=O)c3cc(OC)c(OC)cc3[nH]1)C2 [Compound 306, 2-(3-butyl-5,6-dihydro-8H-imidazo[1,5-α]pyrazin-7-yl)-6,7-dimethoxy-1H-quinazolin-4-one]"
123,17.4,7.76,"COc1cc2[nH]c(N3CCn4c(cnc4N4CCOCC4)C3)nc(=O)c2cc1OC [Compound 307, 6,7-dimethoxy-2-(3-morpholin-4-yl-5,6-dihydro-8H-imidazo[1,5-α]pyrazin-7-yl)-1H-quinazolin-4-one]"
1170,52.5,15.1,"COc1cc2nc(N3CCc4c(cccc4S(=O)(=O)N4CCN(C)CC4)C3)[nH]c(=O)c2cc1OC [Compound 401, 6,7-dimethoxy-2-[5-(4-methyl-piperazine-1-sulfonyl)-3,4-dihydro-1H-isoquinolin-2-yl]-3H-quinazolin-4-one]"

# The remaining lines, values behind:
Compound,Ki (alpha-1D adrenoceptor) [nM],Ki (alpha-1B adrenoceptor) [nM],Ki (alpha-1A adrenoceptor) [nM]
"COc1cc2c(cc1OC)CN(C1=Nc3cc(OC)c(OC)cc3S(=O)(=O)N1)CC2 [Compound 101, 3-(6,7-dimethoxy-3,4-dihydro-1H-isoquinolin-2-yl)-6,7-dimethoxy-2H-benzo[1,2,4]thiadiazine-1,1-dioxide]",66.1,7.08,1.62
"COc1cc2c(cc1OC)S(=O)(=O)NC(N1CCc3c(ncnc3N3CCOCC3)C1)=N2 [Compound 102, 6,7-dimethoxy-3-(4-morpholin-4-yl-5,8-dihydro-6H-pyrido[3,4d]pyrimidin-7-yl)-2H-benzo[1,2,4]thiadiazine-1,1-dioxide]",339,31.6,15.8
"COc1cc2c(cc1OC)CN(c1nc(=O)c3cc(OC)c(OC)cc3[nH]1)CC2 [Compound 105, 2-(6,7-dimethoxy-3,4-dihydro-1H-isoquinolin-2-yl)-6,7-dimethoxy-1H-quinazolin-4-one]",47.9,0.759,0.955
"COc1ccc(-c2cccc3c2CCN(c2nc4cc(OC)c(OC)cc4c(=O)[nH]2)C3)cc1 [Compound 106, 6,7-dimethoxy-2-[5-(4-methoxy-phenyl)-3,4-dihydro-1H-isoquinolin-2-yl]-3H-quinazolin-4-one]",10000,0.741,3.8
"COc1cc2nc(N3CCc4c(cccc4-c4cccnc4)C3)[nH]c(=O)c2cc1OC [Compound 112, 6,7-dimethoxy-2-(5-pyridin-3-yl-3,4-dihydro-1H-isoquinolin-2-yl)-3H-quinazolin-4-one]",132,2.04,1.17
"COc1cc2nc(N3CCc4ccc(N5CCCC5)cc4C3)[nH]c(=O)c2cc1OC [Compound 113, 6,7-dimethoxy-2-(7-pyrrolidin-1-yl-3,4-dihydro-1H-isoquinolin-2-yl)-3H-quinazolin-4-one]",33.9,0.912,2.04
"COc1cc2nc(N3CCc4c(cc(OC)c(OC)c4C#N)C3)[nH]c(=O)c2cc1OC [Compound 118, 2-(6,7-dimethoxy-4-oxo-3,4-dihydro-quinazolin-2-yl)-6,7-dimethoxy-1,2,3,4-tetrahydro-isoquinoline-5-carbonitrile]",17,1.51,0.759
"COc1cc2[nH]c(N3CCc4c(cccc4N4CCOCC4)C3)nc(=O)c2cc1OC [Compound 131, 6,7-dimethoxy-2-(5-morpholin-4-yl-3,4-dihydro-1H-isoquinolin-2-yl)-1H-quinazolin-4-one]",955,39.8,89.1
"COc1cc2[nH]c(N3CCc4cc(O)c(O)cc4C3C)nc(=O)c2cc1OC (stereo not drawn) [Compound 142, 2-(6,7-dihydroxy-1-methyl-3,4-dihydro-1H-isoquinolin-2-yl)-6,7-dimethoxy-1H-quinazolin-4-one]",38900,955,219
"COc1cc2nc(N3CCc4c([nH]c5ccccc45)C3)[nH]c(=O)c2cc1OC [Compound 143, 6,7-dimethoxy-2-(1,3,4,9-tetrahydro-β-carbolin-2-yl)-3H-quinazolin-4-one]",20.9,1.1,0.479
"COc1cc2nc(N3CCc4nc5ccncc5cc4C3)[nH]c(=O)c2cc1OC [Compound 146, 2-(3,4-dihydro-1H-2,7,10-triaza-anthracen-2-yl)-6,7-dimethoxy-3H-quinazolin-4-one]",91.2,5.25,3.47
